The text below walks through data of ChEMBL document CHEMBL4665700, “Cytotoxic Bufadienolides from the Leaves of Melianthus major” (J Nat Prod, 2020).

What all share (assay type): functional
Assay [1] relates to CCRF-CEM. As to the kind of experiment: Cytotoxicity against human CCRF-CEM cells assessed as reduction in cell viability after 72 hrs by resazurin dye-based fluorescence assay. On the technique in general: Alamar Blue is a resazurin reagent that responds to reducing activity.
For assay [2], the system named is MCF7. As to the kind of experiment: Cytotoxicity against human MCF7 cells assessed as reduction in cell viability after 72 hrs by resazurin dye-based fluorescence assay. The conditions noted are these: MCF7, 72 h.
The test system of assay [3] is ADR5000 cell line. In words: Cytotoxicity against human CEM/ADR5000 cells assessed as reduction in cell viability after 72 hrs by resazurin dye-based fluorescence assay. The conditions noted are these: ADR5000, 72 h.
Assay [4] deals with ADR5000 cell line. In words: Cytotoxicity against human CEM/ADR5000 cells assessed as reduction in cell viability at 10 uM after 72 hrs by resazurin dye-based fluorescence assay.
Assay [5] relates to CCRF-CEM. In words: Cytotoxicity against human CCRF-CEM cells assessed as reduction in cell viability at 10 uM after 72 hrs by resazurin dye-based fluorescence assay.
The subject of assay [6] is MCF7. As to the kind of experiment: Cytotoxicity against human MCF7 cells assessed as reduction in cell viability at 10 uM after 72 hrs by resazurin dye-based fluorescence assay.

Each structure is given as a SMILES string. Active and inactive are the calls of the source. The calls are words filed in the database; no cut-off is given here.

As to `C[C@@]12O[C@H]3C[C@@H](O1)[C@]1(C=O)[C@H]4CC[C@@]5(C)[C@@H]([C@@H]4CC[C@@]1(C3)O2)[C@@H]1O[C@@H]1[C@@H]5c1ccc(=O)oc1`, the concentration for half-maximal inhibition (IC50) (in general, the concentration at which inhibition is half-maximal) with CCRF-CEM [1] was found to be 1.6 µM; in the assay on MCF7 [2] it was 4.5 µM; in the assay on ADR5000 cell line [3], 1.6 µM.

As for `CC(=O)O[C@H]1C[C@]2(C=O)[C@H]3CC[C@]4(C)[C@@H](c5ccc(=O)oc5)CC[C@]4(O)[C@@H]3CC[C@]2(O)C[C@H]1OC(C)=O`, the IC50 with CCRF-CEM [1] turned out to be 0.5 µM; with MCF7 [2] it was 3.5 µM; with ADR5000 cell line [3], 0.5 µM.

On to `CC(=O)O[C@H]1[C@H]2O[C@@]3(C)O[C@@H]1C[C@]1(CC[C@H]4[C@H]5[C@@H]6O[C@@H]6[C@H](c6ccc(=O)oc6)[C@@]5(C)CC[C@@H]4[C@@]21C=O)O3`, for which the IC50 turned out to be 1.6 µM in the assay on CCRF-CEM [1], 4.3 µM with MCF7 [2] and 1.8 µM in the assay on ADR5000 cell line [3].

Take `C[C@@]12O[C@H]3C[C@@H](O1)[C@]1(C=O)[C@H]4CC[C@]5(C)[C@@H](c6ccc(=O)oc6)CC[C@]5(O)[C@@H]4CC[C@@]1(C3)O2`: the values for the IC50 with CCRF-CEM [1], in the assay on MCF7 [2] and in the assay on ADR5000 cell line [3] were 0.2 µM, 1 µM and 0.2 µM, respectively.

In the case of `CC(=O)OC[C@]12[C@H]3C[C@H]4C[C@]1(CC[C@@H]1[C@@H]2CC[C@]2(C)[C@@H](c5ccc(=O)oc5)CC[C@]12O)OC(C)(O4)O3`, the outcome with ADR5000 cell line [4], in the assay with CCRF-CEM [5] and in the assay with MCF7 [6] was inactive.

Regarding `C[C@@]12O[C@H]3C[C@@H](O1)[C@]1(C=O)[C@H]4CC[C@]5(C)[C@@H](c6ccc(=O)oc6)[C@@H](O)C[C@]5(O)[C@@H]4CC[C@@]1(C3)O2`, the values for the IC50 in the assay with CCRF-CEM [1], with MCF7 [2] and with ADR5000 cell line [3] were 0.6 µM, 3.1 µM and 0.8 µM, respectively.

As to `CC(=O)OC[C@]12[C@@H]3OC4(C)O[C@H](C[C@]1(CC[C@@H]1[C@@H]2CC[C@]2(C)[C@@H](c5ccc(=O)oc5)CC[C@]12O)O4)[C@H]3O`, the outcome in the assay with ADR5000 cell line [4], in the assay on CCRF-CEM [5] and in the assay on MCF7 [6] was inactive.

In the case of `CC(=O)O[C@H]1C[C@]2(C=O)[C@H]3CC[C@]4(C)[C@@H](c5ccc(=O)oc5)CC[C@]4(O)[C@@H]3CC[C@]2(OC(C)=O)C[C@H]1OC(C)=O`, the figures for the IC50 in the assay with CCRF-CEM [1], in the assay on MCF7 [2] and in the assay with ADR5000 cell line [3] were 0.1 µM, 0.3 µM and 0.1 µM, respectively.

Regarding `CC(=O)OC[C@]12[C@@H]3OC4(C)O[C@H](C[C@]1(CC[C@@H]1[C@@H]2CC[C@]2(C)[C@@H](c5ccc(=O)oc5)[C@H]5O[C@H]5[C@]12O)O4)[C@H]3OC(C)=O`, the result with ADR5000 cell line [4], with CCRF-CEM [5] and in the assay on MCF7 [6] was inactive.

Turning to `COc1cccc2c1C(=O)c1c(O)c3c(c(O)c1C2=O)C[C@@](O)(C(=O)CO)C[C@@H]3O[C@H]1C[C@H](N)[C@H](O)[C@H](C)O1` [DOXORUBICIN], the half-maximal inhibitory concentration (IC50) in the assay on CCRF-CEM [1] amounted to 0.02 µM; in the assay on MCF7 [2] it was 0.18 µM.
